In the supplement of paper PMC10307832:

How the values were obtained:
Assay in all cases: relative viability (nuclei count vs DMSO), 5 days (fraction); higher = more cells survive
[1] = tested on: BEN
Procedure, shortened: (§1)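 Lung cancer cell lines were seeded in 1536-well plates and dosed by pin tool the next day, with either a single drug or a fixed anchor-drug dose combined with five library-drug doses (not always all listed) spaced in √10 steps. Five days later, one step fixed the cells and stained their nuclei (final 0.05% Triton X-100, 1% formaldehyde, 1 ug/ml Hoechst), and nuclei were counted on 4× images. Relative viability is the nuclei count in treated wells divided by the count in vehicle wells, and each value is the median of duplicate plates.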

[2] = tested on: EKVX
Procedure, shortened: as §1

[3] = tested on: HARA
Procedure, shortened: as §1

[4] = tested on: HCC-366
Procedure, shortened: as §1

[5] = tested on: HCC-827
Procedure, shortened: as §1

[6] = tested on: LOU-NH91
Procedure, shortened: as §1

[7] = tested on: NCI-H1355
Procedure, shortened: as §1

[8] = tested on: NCI-H1395
Procedure, shortened: as §1

[9] = tested on: NCI-H1437
Procedure, shortened: as §1

[10] = tested on: NCI-H1734
Procedure, shortened: as §1

[11] = tested on: NCI-H1792
Procedure, shortened: as §1

[12] = tested on: NCI-H1993
Procedure, shortened: as §1

[13] = tested on: NCI-H2009
Procedure, shortened: as §1

[14] = tested on: NCI-H2087
Procedure, shortened: as §1

[15] = tested on: NCI-H2170
Procedure, shortened: as §1

[16] = tested on: NCI-H2405
Procedure, shortened: as §1

[17] = tested on: NCI-H647
Procedure, shortened: as §1

[18] = tested on: NCI-H661
Procedure, shortened: as §1

[19] = tested on: SK-LU-1
Procedure, shortened: as §1

[20] = tested on: SK-MES-1
Procedure, shortened: as §1

SMILES: COc1cc2nccc(Oc3ccc(NC(=O)Nc4cc(C)on4)c(Cl)c3)c2cc1OC [Tivozanib] + CS(=O)(=O)N1CCN(Cc2cc3nc(-c4cccc5[nH]ncc45)nc(N4CCOCC4)c3s2)CC1 [Pictilisib] (partner 1 µM)
- relative viability ([1]; first compound 0.005 µM): 0.61
- relative viability ([1]; first compound 0.01581 µM): 0.541
- relative viability ([1]; first compound 0.05 µM): 0.603
- relative viability ([1]; first compound 0.5 µM): 0.505
- relative viability ([2]; first compound 0.005 µM): 0.392
- relative viability ([2]; first compound 0.01581 µM): 0.426
- relative viability ([2]; first compound 0.05 µM): 0.535
- relative viability ([2]; first compound 0.1581 µM): 0.394
- relative viability ([2]; first compound 0.5 µM): 0.497
- relative viability ([3]; first compound 0.005 µM): 0.395
- relative viability ([3]; first compound 0.01581 µM): 0.312
- relative viability ([3]; first compound 0.05 µM): 0.485
- relative viability ([3]; first compound 0.1581 µM): 0.309
- relative viability ([3]; first compound 0.5 µM): 0.603
- relative viability ([4]; first compound 0.005 µM): 0.126
- relative viability ([4]; first compound 0.01581 µM): 0.179
- relative viability ([4]; first compound 0.05 µM): 0.103
- relative viability ([4]; first compound 0.1581 µM): 0.189
- relative viability ([4]; first compound 0.5 µM): 0.175
- relative viability ([5]; first compound 0.005 µM): 0.864
- relative viability ([5]; first compound 0.01581 µM): 0.924
- relative viability ([5]; first compound 0.05 µM): 1.01
- relative viability ([5]; first compound 0.1581 µM): 1.24
- relative viability ([5]; first compound 0.5 µM): 0.982
- relative viability ([6]; first compound 0.005 µM): 0.467
- relative viability ([6]; first compound 0.01581 µM): 0.519
- relative viability ([6]; first compound 0.05 µM): 0.559
- relative viability ([6]; first compound 0.1581 µM): 0.485
- relative viability ([6]; first compound 0.5 µM): 0.526
- relative viability ([7]; first compound 0.005 µM): 0.381
- relative viability ([7]; first compound 0.01581 µM): 0.41
- relative viability ([7]; first compound 0.05 µM): 0.441
- relative viability ([7]; first compound 0.5 µM): 0.387
- relative viability ([8]; first compound 0.005 µM): 0.671
- relative viability ([8]; first compound 0.01581 µM): 0.746
- relative viability ([8]; first compound 0.05 µM): 0.769
- relative viability ([8]; first compound 0.1581 µM): 0.627
- relative viability ([8]; first compound 0.5 µM): 0.678
- relative viability ([9]; first compound 0.005 µM): 0.347
- relative viability ([9]; first compound 0.01581 µM): 0.463
- relative viability ([9]; first compound 0.05 µM): 0.401
- relative viability ([9]; first compound 0.1581 µM): 0.177
- relative viability ([9]; first compound 0.5 µM): 0.52
- relative viability ([10]; first compound 0.005 µM): 0.45
- relative viability ([10]; first compound 0.01581 µM): 0.443
- relative viability ([10]; first compound 0.05 µM): 0.456
- relative viability ([10]; first compound 0.1581 µM): 0.359
- relative viability ([10]; first compound 0.5 µM): 0.442
- relative viability ([11]; first compound 0.005 µM): 0.248
- relative viability ([11]; first compound 0.01581 µM): 0.27
- relative viability ([11]; first compound 0.05 µM): 0.289
- relative viability ([11]; first compound 0.1581 µM): 0.283
- relative viability ([11]; first compound 0.5 µM): 0.274
- relative viability ([12]; first compound 0.005 µM): 0.845
- relative viability ([12]; first compound 0.01581 µM): 0.782
- relative viability ([12]; first compound 0.05 µM): 0.875
- relative viability ([12]; first compound 0.1581 µM): 0.709
- relative viability ([12]; first compound 0.5 µM): 0.737
- relative viability ([13]; first compound 0.005 µM): 0.811
- relative viability ([13]; first compound 0.01581 µM): 0.776
- relative viability ([13]; first compound 0.05 µM): 0.833
- relative viability ([13]; first compound 0.1581 µM): 0.633
- relative viability ([13]; first compound 0.5 µM): 0.663
- relative viability ([14]; first compound 0.005 µM): 0.765
- relative viability ([14]; first compound 0.01581 µM): 1.08
- relative viability ([14]; first compound 0.05 µM): 0.851
- relative viability ([14]; first compound 0.1581 µM): 0.738
- relative viability ([14]; first compound 0.5 µM): 1.02
- relative viability ([15]; first compound 0.005 µM): 0.312
- relative viability ([15]; first compound 0.01581 µM): 0.344
- relative viability ([15]; first compound 0.05 µM): 0.404
- relative viability ([15]; first compound 0.5 µM): 0.335
- relative viability ([16]; first compound 0.005 µM): 0.34
- relative viability ([16]; first compound 0.01581 µM): 0.398
- relative viability ([16]; first compound 0.05 µM): 0.428
- relative viability ([16]; first compound 0.1581 µM): 0.312
- relative viability ([16]; first compound 0.5 µM): 0.342
- relative viability ([17]; first compound 0.005 µM): 0.419
- relative viability ([17]; first compound 0.01581 µM): 0.438
- relative viability ([17]; first compound 0.05 µM): 0.402
- relative viability ([17]; first compound 0.1581 µM): 0.296
- relative viability ([17]; first compound 0.5 µM): 0.227
- relative viability ([18]; first compound 0.005 µM): 0.37
- relative viability ([18]; first compound 0.01581 µM): 0.339
- relative viability ([18]; first compound 0.05 µM): 0.55
- relative viability ([18]; first compound 0.1581 µM): 0.28
- relative viability ([18]; first compound 0.5 µM): 0.38
- relative viability ([19]; first compound 0.005 µM): 0.618
- relative viability ([19]; first compound 0.01581 µM): 0.465
- relative viability ([19]; first compound 0.05 µM): 0.483
- relative viability ([19]; first compound 0.1581 µM): 0.336
- relative viability ([19]; first compound 0.5 µM): 0.55
- relative viability ([20]; first compound 0.005 µM): 0.325
- relative viability ([20]; first compound 0.01581 µM): 0.34
- relative viability ([20]; first compound 0.05 µM): 0.416
- relative viability ([20]; first compound 0.1581 µM): 0.289
- relative viability ([20]; first compound 0.5 µM): 0.363
